Results from US10487092B2, “Pyrazolopyridinamines as MKNK1 and MKNK2 inhibitors” (BAYER PHARMA AKTIENGESELLSCHAFT, priority 2014, dated 2019).

biological target: human full-length MKNK1 (Homo sapiens (Human), UniProt Q9BUB5, T344D); experiment: MKNK1 kinase high ATP assay (TR-FRET); format: biochemical; conditions: high ATP (2 mM), 15 min preincubation with enzyme; read-out: MKNK1 IC50
Protocol: MKNK1 Kinase High ATP Assay
MKNK1-inhibitory activity at high ATP of compounds of the present invention after their preincubation with MKNK1 was quantified employing the TR-FRET-based MKNK1 high ATP assay as described in the following paragraphs.
A recombinant fusion protein of Glutathione-S-Transferase (GST, N-terminally) and human full-length MKNK1 (amino acids 1-424 and T344D of accession number BAA 19885.1), expressed in insect cells using baculovirus expression system and purified via glutathione sepharose affinity chromatography, was purchased from Carna Biosciences (product no 02-145) and used as enzyme. As substrate for the kinase reaction the biotinylated peptide biotin-Ahx-IKKRKLTRRKSLKG (SEQ ID NO: 1, C-terminus in amide form) was used, which can be purchased e.g. from the company Biosyntan (Berlin-Buch, Germany).
For the assay 50 nL of a 100 fold concentrated solution of the test compound in DMSO was pipetted into a black low volume 384 well microtiter plate (Greiner Bio-One, Frickenhausen, Germany), 2 μL of a solution of MKNK1 in aqueous assay buffer [50 mM HEPES pH 7.5, 5 mM MgCl2, 1.0 mM dithiothreitol, 0.005% (v/v) Nonidet-P40 (Sigma)] was added and the mixture was incubated for 15 min at 22° C. to allow pre-binding of the test compounds to the enzyme before the start of the kinase reaction. Then the kinase reaction was started by the addition of 3 μL of a solution of adenosine-tri-phosphate (ATP, 3.3 mM=>final conc. in the 5 μL assay volume is 2 mM) and substrate (0.1 μM=>final conc. in the 5 μL assay volume is 0.06 μM) in assay buffer and the resulting mixture was incubated for a reaction time of 30 min at 22° C. The concentration of MKNK1 was adjusted depending of the activity of the enzyme lot and was chosen appropriate to have the assay in the linear range, typical concentrations were in the range of 0.003 μg/mL. The reaction was stopped by the addition of 5 μL of a solution of TR-FRET detection reagents (5 nM streptavidine-XL665 [Cisbio Bioassays, Codolet, France] and 1 nM anti-ribosomal protein S6 (pSer236)-antibody from Invitrogen [#44921G] and 1 nM LANCE EU-W1024 labeled ProteinG [Perkin-Elmer, product no. AD0071]) in an aqueous EDTA-solution (100 mM EDTA, 0.1% (w/v) bovine serum albumin in 50 mM HEPES pH 7.5).
The resulting mixture was incubated for 1 h at 22° C. to allow the formation of complex between the phosphorylated biotinylated peptide and the detection reagents. Subsequently the amount of phosphorylated substrate was evaluated by measurement of the resonance energy transfer from the Eu-chelate to the streptavidine-XL. Therefore, the fluorescence emissions at 620 nm and 665 nm after excitation at 350 nm were measured in a TR-FRET reader, e.g. a Rubystar (BMG Labtechnologies, Offenburg, Germany) or a Viewlux (Perkin-Elmer). The ratio of the emissions at 665 nm and at […] was taken as the measure for the amount of phosphorylated substrate. The data were normalised (enzyme reaction without inhibitor=0% inhibition, all other assay components but no enzyme=100% inhibition).

Sequence of human full-length MKNK1 (Q9BUB5 other isoform, or with tags, fused parts or gaps T344D): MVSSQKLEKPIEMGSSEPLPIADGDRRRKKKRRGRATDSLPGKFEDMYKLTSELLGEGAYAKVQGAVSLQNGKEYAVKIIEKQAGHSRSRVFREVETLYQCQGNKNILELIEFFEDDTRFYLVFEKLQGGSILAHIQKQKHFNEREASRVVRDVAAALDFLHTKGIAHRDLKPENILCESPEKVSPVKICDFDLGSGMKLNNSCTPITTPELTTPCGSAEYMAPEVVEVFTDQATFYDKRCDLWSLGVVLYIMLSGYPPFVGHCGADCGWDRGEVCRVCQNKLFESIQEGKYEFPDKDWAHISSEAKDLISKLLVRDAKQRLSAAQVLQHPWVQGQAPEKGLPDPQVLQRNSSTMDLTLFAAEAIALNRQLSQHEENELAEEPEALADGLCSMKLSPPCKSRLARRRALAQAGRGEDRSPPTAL

| Structure (SMILES) | IC50 |
| --- | --- |
| CN(C)C(=O)C1CCc2c(sc3ncnc(Nc4ccn5nccc5c4)c23)C1 (racemic) [Example 1, (RS) N,N-Dimethyl-4-(pyrazolo[1,5-a]pyridin-5-ylamino)-5,6,7,8-tetrahydro[1]benzothieno[2,3-d]pyrimidine-7-carboxamide] | 0.064 µM |
| O=C(O)[C@H]1CCc2c(sc3ncnc(Nc4ccn5nccc5c4)c23)C1 [Example 2, (7S)-4-(Pyrazolo[1,5-a]pyridin-5-ylamino)-5,6,7,8-tetrahydro[1]benzothieno[2,3-d]pyrimidine-7-carboxylic acid] | 0.707 µM |
| C[C@@H]1COCCN1C(=O)[C@H]1CCc2c(sc3ncnc(Nc4ccn5nccc5c4)c23)C1 [Example 3, [(3R)-3-Methylmorpholin-4-yl][(7S)-4-(pyrazolo[1,5-a]pyridin-5-ylamino)-5,6,7,8-tetrahydro[1]benzothieno[2,3-d]pyrimidin-7-yl]methanone] | 0.08 µM |
| CN(C)CCN(C)C(=O)[C@H]1CCc2c(sc3ncnc(Nc4ccn5nccc5c4)c23)C1 [Example 4, (7S)—N-[2-(Dimethylamino)ethyl]-N-methyl-4-(pyrazolo[1,5-a]pyridin-5-ylamino)-5,6,7,8-tetrahydro[1]benzothieno[2,3-d]pyrimidine-7-carboxamide] | 0.021 µM |
| C[C@@H]1CN(C(=O)[C@H]2CCc3c(sc4ncnc(Nc5ccn6nccc6c5)c34)C2)C[C@H](C)O1 [Example 5, [(2R,6S)-2,6-Dimethylmorpholin-4-yl][(7S)-4-(pyrazolo[1,5-a]pyridin-5-ylamino)-5,6,7,8-tetrahydro[1]benzothieno[2,3-d]pyrimidin-7-yl]methanone] | 0.021 µM |
| CN(C)[C@@H]1CCN(C(=O)[C@H]2CCc3c(sc4ncnc(Nc5ccn6nccc6c5)c34)C2)C1 [Example 6, [(3R)-3-(Dimethylamino)pyrrolidin-1-yl][(7S)-4-(pyrazolo[1,5-a]pyridin-5-ylamino)-5,6,7,8-tetrahydro[1]benzothieno[2,3-d]pyrimidin-7-yl]methanone] | 0.012 µM |
| C[C@H]1COCCN1C(=O)[C@H]1CCc2c(sc3ncnc(Nc4ccn5nccc5c4)c23)C1 [Example 7, [(3S)-3-Methylmorpholin-4-yl][(7S)-4-(pyrazolo[1,5-a]pyridin-5-ylamino)-5,6,7,8-tetrahydro[1]benzothieno[2,3-d]pyrimidin-7-yl]methanone] | 0.065 µM |
| COCCN(C)C(=O)[C@H]1CCc2c(sc3ncnc(Nc4ccn5nccc5c4)c23)C1 [Example 8, (7S)—N-(2-Methoxyethyl)-N-methyl-4-(pyrazolo[1,5-a]pyridin-5-ylamino)-5,6,7,8-tetrahydro[1]benzothieno[2,3-d]pyrimidine-7-carboxamide] | 0.042 µM |
| C[C@H]1CN(C(=O)[C@H]2CCc3c(sc4ncnc(Nc5ccn6nccc6c5)c34)C2)C[C@H](C)O1 [Example 9, [(2S,6S)-2,6-Dimethylmorpholin-4-yl][(7S)-4-(pyrazolo[1,5-a]pyridin-5-ylamino)-5,6,7,8-tetrahydro[1]benzothieno[2,3-d]pyrimidin-7-yl]methanone] | 0.049 µM |
| C[C@@H]1CN(C(=O)[C@H]2CCc3c(sc4ncnc(Nc5ccn6nccc6c5)c34)C2)C[C@@H](C)O1 [Example 10, [(2R,6R)-2,6-Dimethylmorpholin-4-yl][(7S)-4-(pyrazolo[1,5-a]pyridin-5-ylamino)-5,6,7,8-tetrahydro[1]benzothieno[2,3-d]pyrimidin-7-yl]methanone] | 0.033 µM |
| O=C([C@H]1CCc2c(sc3ncnc(Nc4ccn5nccc5c4)c23)C1)N1CCOCC1 [Example 11, Morpholin-4-yl[(7S)-4-(pyrazolo[1,5-a]pyridin-5-ylamino)-5,6,7,8-tetrahydro[1]benzothieno[2,3-d]pyrimidin-7-yl]methanone] | 0.062 µM |
| O=C([C@H]1CCc2c(sc3ncnc(Nc4ccn5nccc5c4)c23)C1)N1CC2CC2C1 (stereo partly drawn) [Example 12, 3-Azabicyclo[3.1.0]hex-3-yl[(7S)-4-(pyrazolo[1,5-a]pyridin-5-ylamino)-5,6,7,8-tetrahydro[1]benzothieno[2,3-d]pyrimidin-7-yl]methanone] | 0.024 µM |
| C[C@@H]1COC[C@H](C)N1C(=O)[C@H]1CCc2c(sc3ncnc(Nc4ccn5nccc5c4)c23)C1 [Example 13, [(3R,5S)-3,5-Dimethylmorpholin-4-yl][(7S)-4-(pyrazolo[1,5-a]pyridin-5-ylamino)-5,6,7,8-tetrahydro[1]benzothieno[2,3-d]pyrimidin-7-yl]methanone] | 0.017 µM |
| C[C@@H]1COC[C@@H](C)N1C(=O)[C@H]1CCc2c(sc3ncnc(Nc4ccn5nccc5c4)c23)C1 [Example 14, [(3R,5R)-3,5-Dimethylmorpholin-4-yl][(7S)-4-(pyrazolo[1,5-a]pyridin-5-ylamino)-5,6,7,8-tetrahydro[1]benzothieno[2,3-d]pyrimidin-7-yl]methanone] | 0.007 µM |
| CC(C)N(C)C(=O)[C@H]1CCc2c(sc3ncnc(Nc4ccn5nccc5c4)c23)C1 [Example 16, (7S)—N-Isopropyl-N-methyl-4-(pyrazolo[1,5-a]pyridin-5-ylamino)-5,6,7,8-tetrahydro[1]benzothieno[2,3-d]pyrimidine-7-carboxamide] | 0.019 µM |
| CN(C)C(=O)[C@H]1CCc2c(sc3ncnc(Nc4ccn5nccc5c4)c23)C1 [Example 17, (7S)—N,N-Dimethyl-4-(pyrazolo[1,5-a]pyridin-5-ylamino)-5,6,7,8-tetrahydro[1]benzothieno[2,3-d]pyrimidine-7-carboxamide] | 0.033 µM |
| CN(CC(F)F)C(=O)[C@H]1CCc2c(sc3ncnc(Nc4ccn5nccc5c4)c23)C1 [Example 18, (7S)—N-(2,2-Difluoroethyl)-N-methyl-4-(pyrazolo[1,5-a]pyridin-5-ylamino)-5,6,7,8-tetrahydro[1]benzothieno[2,3-d]pyrimidine-7-carboxamide] | 0.019 µM |
| CN(CC(C)(C)O)C(=O)[C@H]1CCc2c(sc3ncnc(Nc4ccn5nccc5c4)c23)C1 [Example 19, (7S)—N-(2-Hydroxy-2-methylpropyl)-N-methyl-4-(pyrazolo[1,5-a]pyridin-5-ylamino)-5,6,7,8-tetrahydro[1]benzothieno[2,3-d]pyrimidine-7-carboxamide] | 0.021 µM |
| O=C([C@H]1CCc2c(sc3ncnc(Nc4ccn5nccc5c4)c23)C1)N1CCC1 [Example 20, Azetidin-1-yl[(7S)-4-(pyrazolo[1,5-a]pyridin-5-ylamino)-5,6,7,8-tetrahydro[1]benzothieno[2,3-d]pyrimidin-7-yl]methanone] | 0.026 µM |
| CCN(CCO)C(=O)[C@H]1CCc2c(sc3ncnc(Nc4ccn5nccc5c4)c23)C1 [Example 21, (7S)—N-Ethyl-N-(2-hydroxyethyl)-4-(pyrazolo[1,5-a]pyridin-5-ylamino)-5,6,7,8-tetrahydro[1]benzothieno[2,3-d]pyrimidine-7-carboxamide] | 0.019 µM |
| N#CC1CN(C(=O)[C@H]2CCc3c(sc4ncnc(Nc5ccn6nccc6c5)c34)C2)C1 [Example 22, 1-{[(7S)-4-(Pyrazolo[1,5-a]pyridin-5-ylamino)-5,6,7,8-tetrahydro[1]benzothieno[2,3-d]pyrimidin-7-yl]carbonyl}azetidine-3-carbonitrile] | 0.021 µM |
| O=C([C@H]1CCc2c(sc3ncnc(Nc4ccn5nccc5c4)c23)C1)N1CC(F)(F)C1 [Example 23, (3,3-Difluoroazetidin-1-yl)[(7S)-4-(pyrazolo[1,5-a]pyridin-5-ylamino)-5,6,7,8-tetrahydro[1]benzothieno[2,3-d]pyrimidin-7-yl]methanone] | 0.023 µM |
| O=C([C@H]1CCc2c(sc3ncnc(Nc4ccn5nccc5c4)c23)C1)N1CC(O)C1 [Example 24, (3-Hydroxyazetidin-1-yl)[(7S)-4-(pyrazolo[1,5-a]pyridin-5-ylamino)-5,6,7,8-tetrahydro[1]benzothieno[2,3-d]pyrimidin-7-yl]methanone] | 0.02 µM |
| CN(CCNC(=O)OC(C)(C)C)C(=O)[C@H]1CCc2c(sc3ncnc(Nc4ccn5nccc5c4)c23)C1 [Example 25, tert-Butyl [2-(methyl{[(7S)-4-(pyrazolo[1,5-a]pyridin-5-ylamino)-5,6,7,8-tetrahydro[1]benzothieno[2,3-d]pyrimidin-7-yl]carbonyl}amino)ethyl]carbamate] | 0.013 µM |
